What was measured:
[1] = biological target: T1, OXA-1 β-lactamase (Escherichia coli, UniProt P13661); assay: β-lactamase enzyme inhibition, OXA-1; type: biochemical; settings: Nitrocefin 100 μM, 486 nm; 15 min at 37° C. preincubation; read-out: IC50 OXA-1 (Class D)
T1 construct: made in house; host or cells: E. coli BL21(DE3)
In short: (§1)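 IC50 values reflect inhibitor concentrations halving the initial hydrolysis rate relative to uninhibited wells. Untagged recombinant enzymes were exposed to inhibitor at 37° C for 15 min before substrate addition: 100 μM nitrocefin for OXA-1 and p99 AmpC, imipenem for KPC-2, cefotaxime for SHV-5, each monitored spectrophotometrically for 10 min.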

[2] = test system: P. aeruginosa Ps296 expressing VIM-2; assay: broth microdilution MIC, P. aeruginosa VIM-2; type: cell-based; settings: Fixed Mero (meropenem) 4 μg/mL
In short: (§2)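 Compounds were titrated in 2-fold steps from 32 to 0.25 μg/mL in cation-adjusted Mueller Hinton broth with a β-lactam held at 4 μg/mL. Plates were inoculated by CLSI broth microdilution with strains pre-grown 3–5 h. After 16–20 h at 37 °C, MIC was read visually.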

[3] = test system: E. coli ESBL4 expressing CTX-M-15; assay: broth microdilution MIC, E. coli CTX-M-15; type: cell-based; settings: Fixed CAZ (ceftazidime) 4 μg/mL
In short: as §2

[4] = test system: E. cloacae 144200 expressing Class C P99 AmpC; assay: broth microdilution MIC, E. cloacae P99; type: cell-based; settings: Fixed CAZ (ceftazidime) 4 μg/mL
In short: as §2

[5] = test system: K. pneumoniae A-1797 expressing KPC-2 and VIM-4; assay: broth microdilution MIC, K. pneumoniae KPC-2 and VIM-4; type: cell-based; settings: Fixed Mero (meropenem) 4 μg/mL
In short: as §2

[6] = test system: S. aureus MSSA-7 producing penicillinase PC-1; assay: broth microdilution MIC, S. aureus PC-1; type: cell-based; settings: Fixed Pip (piperacillin) 4 μg/mL
In short: as §2

[7] = test system: K. pneumoniae 156319 expressing KPC-3; assay: broth microdilution MIC, K. pneumoniae KPC-3; type: cell-based; settings: Fixed Mero (meropenem) 4 μg/mL
In short: as §2

[8] = biological target: T2, VIM-2 metallo β-lactamase (Pseudomonas aeruginosa, UniProt Q9K2N0); assay: β-lactamase enzyme inhibition, VIM-2; type: biochemical; settings: Nitrocefin 100 μM, 486 nm; 15 min at 37° C. preincubation; read-out: IC50 VIM-2 (Class B)
T2 construct: made in house; host or cells: E. coli BL21(DE3)
In short: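 VIM-2 purified by Q sepharose anion exchange (50 mM Hepes pH 7.5, 0-600 mM NaCl gradient, two runs, >90% purity). Enzyme preincubated with inhibitor 15 min at 37° C; nitrocefin 100 μM final, absorbance at 486 nm followed 10 min. IC50 from initial hydrolysis rates versus inhibitor-free controls.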

[9] = biological target: T3, p99 AmpC β-lactamase (Enterobacter cloacae, UniProt P05364); assay: β-lactamase enzyme inhibition, p99 AmpC; type: biochemical
T3 construct: made in house; host or cells: E. coli BL21(DE3)
In short: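 Native untagged E. cloacae p99 AmpC was expressed in E. coli BL21(DE3) and purified by cation exchange and gel filtration. Enzyme was preincubated with inhibitor at 37°C for 15 min.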

[10] = biological target: T4, KPC-2 β-lactamase (Klebsiella pneumoniae, UniProt Q9F663); assay: β-lactamase enzyme inhibition, KPC-2; type: biochemical; settings: imipenem substrate, 300 nm; 15 min at 37° C. preincubation; read-out: IC50 KPC-2 (Class A)
T4 construct: made in house; host or cells: E. coli BL21(DE3)
In short: as §1

[11] = biological target: T5, SHV-5 β-lactamase (Klebsiella pneumoniae, UniProt P0A3M1); assay: β-lactamase enzyme inhibition, SHV-5; type: biochemical
T5 construct: made in house; host or cells: E. coli BL21(DE3)
In short: as §1

T4 sequence (Q9F663 25-293, looked up): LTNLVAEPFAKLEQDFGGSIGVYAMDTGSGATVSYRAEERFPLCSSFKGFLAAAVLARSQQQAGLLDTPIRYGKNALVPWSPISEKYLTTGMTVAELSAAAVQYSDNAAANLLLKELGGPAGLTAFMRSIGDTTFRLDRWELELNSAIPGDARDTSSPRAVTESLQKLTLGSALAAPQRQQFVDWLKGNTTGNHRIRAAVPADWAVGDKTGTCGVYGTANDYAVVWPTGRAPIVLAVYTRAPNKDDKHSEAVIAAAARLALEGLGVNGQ
T1 sequence (P13661 26-276): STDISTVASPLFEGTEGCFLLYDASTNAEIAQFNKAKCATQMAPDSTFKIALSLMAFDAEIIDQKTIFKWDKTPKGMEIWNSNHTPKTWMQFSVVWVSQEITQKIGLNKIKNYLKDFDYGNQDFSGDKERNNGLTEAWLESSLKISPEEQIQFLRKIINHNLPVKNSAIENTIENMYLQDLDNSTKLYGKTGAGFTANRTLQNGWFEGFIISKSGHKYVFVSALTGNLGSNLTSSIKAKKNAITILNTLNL
T3 sequence (P05364 21-381): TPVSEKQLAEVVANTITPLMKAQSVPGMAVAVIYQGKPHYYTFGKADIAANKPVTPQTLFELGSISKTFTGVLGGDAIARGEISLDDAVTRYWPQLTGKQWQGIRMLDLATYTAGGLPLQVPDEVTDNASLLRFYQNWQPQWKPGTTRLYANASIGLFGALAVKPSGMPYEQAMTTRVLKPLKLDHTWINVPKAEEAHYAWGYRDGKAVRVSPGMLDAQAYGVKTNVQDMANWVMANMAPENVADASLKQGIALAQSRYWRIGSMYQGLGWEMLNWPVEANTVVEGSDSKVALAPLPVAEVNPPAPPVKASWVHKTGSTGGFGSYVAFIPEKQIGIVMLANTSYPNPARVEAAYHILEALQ
T5 sequence (P0A3M1 22-286): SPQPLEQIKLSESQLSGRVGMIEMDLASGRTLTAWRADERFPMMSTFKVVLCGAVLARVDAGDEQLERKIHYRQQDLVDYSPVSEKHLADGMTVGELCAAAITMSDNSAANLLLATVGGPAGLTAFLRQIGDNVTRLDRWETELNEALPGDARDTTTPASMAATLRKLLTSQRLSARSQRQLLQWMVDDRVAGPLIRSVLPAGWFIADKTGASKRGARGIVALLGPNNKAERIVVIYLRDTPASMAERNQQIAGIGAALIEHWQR

## O=C(Cc1ccc2c(c1)CNC2)N[C@H]1Cc2cccc(C(=O)O)c2OB1O [Example 64, (R)-3-(2-2,3-Dihydro-1H-isoindol-5-yl-acetylamino)-2-hydroxy-3,4-dihydro-2H-benzo[e][1,2]oxaborinine-8-carboxylic acid]
[1]
  IC50: < 100 nM
[2]
  MIC of exemplary compounds in presence of fixed β-lactams, P. aerug. Ps296 VIM-2: C (C represents the MIC in the presence of ≤4 g/mL of a β-lactamase inhibitor)
[3]
  MIC of exemplary compounds in presence of fixed β-lactams, E. coli ESBL4 CTX-M-15: C (C represents the MIC in the presence of ≤4 g/mL of a β-lactamase inhibitor)
[4]
  MIC of exemplary compounds in presence of fixed β-lactams, E. cl. 144200 p99 AmpC: C (C represents the MIC in the presence of ≤4 g/mL of a β-lactamase inhibitor)
[5]
  MIC of exemplary compounds in presence of fixed β-lactams, K.P. A-1797 KPC-2 VIM-4: B (B represents the MIC in the presence of between 8 and 32 g/mL of a β-lactamase inhibitor)
[6]
  MIC of exemplary compounds in presence of fixed β-lactams, S. aureus MSSA-7 PC-1: C (C represents the MIC in the presence of ≤4 g/mL of a β-lactamase inhibitor)
[7]
  MIC of exemplary compounds in presence of fixed β-lactams, K.P. 156319 KPC-3: C (C represents the MIC in the presence of ≤4 g/mL of a β-lactamase inhibitor)
[8]
  IC50: 100 to 1000 nM
[9]
  IC50: < 100 nM
[10]
  IC50: < 100 nM
[11]
  IC50: < 100 nM

— patent US11008346B2, “Beta-lactamase inhibitors” (priority 2014, dated 2021)
